Test results reported in PMC10397291, “Molecular pathway and structural mechanism of human oncochannel TRPV6 inhibition by the phytocannabinoid tetrahydrocannabivarin” (Nature Communications, 2023).
“Also recorded” adds a separate entry of the source.

How the values were obtained:
[1] = system: TRPV6; conditions: at the tested doses; cited from earlier work
[2] = system: TRPV5; design: method as in PMID 30170189; conditions: at the tested doses; cited from earlier work
[3] = molecular target: T1, L490W mutant hTRPV6 (Homo sapiens, UniProt Q9H1D0, L530W); assay: Fura-2 AM Ca2+ uptake, L490W mutant hTRPV6; type: cell-based; conditions: L490W
T1 construct: Full-length wild-type or mutant human TRPV6 was expressed in HEK 293S cells as described above; expressed in transfected cells; host or cells: HEK 293S GnTI- (baculovirus/BacMam transduction)
T1 sequence (Q9H1D0 41-765 L530W limits assumed): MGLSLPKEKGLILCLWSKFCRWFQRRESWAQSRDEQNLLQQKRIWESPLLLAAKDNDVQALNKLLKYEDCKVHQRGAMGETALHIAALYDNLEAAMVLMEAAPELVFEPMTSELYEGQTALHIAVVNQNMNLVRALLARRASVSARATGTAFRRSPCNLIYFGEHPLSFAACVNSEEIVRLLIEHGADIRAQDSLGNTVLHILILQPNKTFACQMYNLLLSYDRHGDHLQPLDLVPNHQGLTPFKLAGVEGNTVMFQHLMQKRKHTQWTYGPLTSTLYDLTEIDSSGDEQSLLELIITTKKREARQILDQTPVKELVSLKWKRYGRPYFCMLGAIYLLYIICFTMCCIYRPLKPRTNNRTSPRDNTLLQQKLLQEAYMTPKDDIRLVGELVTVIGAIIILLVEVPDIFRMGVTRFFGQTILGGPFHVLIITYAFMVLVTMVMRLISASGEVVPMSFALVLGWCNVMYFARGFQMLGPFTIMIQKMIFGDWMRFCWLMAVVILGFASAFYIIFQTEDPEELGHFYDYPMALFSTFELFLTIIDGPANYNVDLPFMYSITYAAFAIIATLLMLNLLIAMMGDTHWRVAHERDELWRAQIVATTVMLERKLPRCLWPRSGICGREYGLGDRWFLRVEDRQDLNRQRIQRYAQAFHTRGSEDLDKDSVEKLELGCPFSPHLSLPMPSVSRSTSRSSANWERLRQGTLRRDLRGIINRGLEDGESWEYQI

[4] = system: TRPV6; design: method as in doi:10.1038/nature17975; conditions: ref doi:10.1038/nature17975; cited from earlier work
[5] = molecular target: C-terminally truncated human TRPV6 (hTRPV6-CtD, residues 1–666 of wild-type channel) (human); assay: cryo-EM structure; hTRPV6-CtD in cNW30 nanodiscs with soybean lipids, 114 µM THCV; 150 mM NaCl, 20 mM Tris-HCl pH 8.0, 1 mM βME; C4 symmetry, 2.79 Å
[6] = molecular target: full-length human TRPV6 L490W mutant with C-terminal streptavidin affinity tag and eGFP (FSEC construct) (human); assay: SEC; fluorescence-detection SEC (FSEC) of eGFP-tagged channels; HEK cells solubilised in 1% DDM, 0.1% CHS, supernatant on Superose 6 10/300 GL in 1 mM DDM, 20 mM Tris-HCl pH 8.0, 150 mM NaCl, 1 mM βME
[7] = molecular target: full-length wild-type human TRPV6 with C-terminal streptavidin affinity tag and eGFP (FSEC construct) (human); assay: as above

## C=C(C)[C@@H]1CCC(C)=C[C@H]1c1c(O)cc(CCCCC)cc1O [CBD, cannabidiol]
[1]
  antagonist effect on TRPV6: Lack of CBD effect; also recorded: do not modulate; also recorded: ineffective
[2]
  antagonist effect on TRPV5: ineffective

## [Gd+3] [Gd3+]
[3]; 100 µM Gd3+
  block of Ca2+ uptake: complete block
[3]; 100 mM Gd3+ as printed, n = 3
  inhibition of calcium uptake: complete inhibition
[4]
  block of the calcium uptake signal: full block of the signal

## C-terminally truncated human TRPV6 (hTRPV6-CtD, residues 1–666 of wild-type channel) (domain or fragment)
[5]
  stoichiometry N: 4

## full-length human TRPV6 L490W mutant with C-terminal streptavidin affinity tag and eGFP (FSEC construct) (natural protein)
[6]
  stoichiometry N: 4

## full-length wild-type human TRPV6 with C-terminal streptavidin affinity tag and eGFP (FSEC construct) (natural protein)
[7]
  stoichiometry N: 4
